Laboratory results: publication PMC9030254, “Target Hopping from Protein Kinases to PXR: Identification of Small-Molecule Protein Kinase Inhibitors as Selective Modulators of Pregnane X Receptor from TüKIC Library” (Cells, 2022)

Experiments:
Assay in all cases: Kinase profiling
Format in all cases: biochemical
PKCepsilon = target: T1, PKCepsilon (Homo sapiens, UniProt Q02156)
T1 construct: purchased ProQinase (Freiburg, Germany)
T1 sequence (Q02156 1-737): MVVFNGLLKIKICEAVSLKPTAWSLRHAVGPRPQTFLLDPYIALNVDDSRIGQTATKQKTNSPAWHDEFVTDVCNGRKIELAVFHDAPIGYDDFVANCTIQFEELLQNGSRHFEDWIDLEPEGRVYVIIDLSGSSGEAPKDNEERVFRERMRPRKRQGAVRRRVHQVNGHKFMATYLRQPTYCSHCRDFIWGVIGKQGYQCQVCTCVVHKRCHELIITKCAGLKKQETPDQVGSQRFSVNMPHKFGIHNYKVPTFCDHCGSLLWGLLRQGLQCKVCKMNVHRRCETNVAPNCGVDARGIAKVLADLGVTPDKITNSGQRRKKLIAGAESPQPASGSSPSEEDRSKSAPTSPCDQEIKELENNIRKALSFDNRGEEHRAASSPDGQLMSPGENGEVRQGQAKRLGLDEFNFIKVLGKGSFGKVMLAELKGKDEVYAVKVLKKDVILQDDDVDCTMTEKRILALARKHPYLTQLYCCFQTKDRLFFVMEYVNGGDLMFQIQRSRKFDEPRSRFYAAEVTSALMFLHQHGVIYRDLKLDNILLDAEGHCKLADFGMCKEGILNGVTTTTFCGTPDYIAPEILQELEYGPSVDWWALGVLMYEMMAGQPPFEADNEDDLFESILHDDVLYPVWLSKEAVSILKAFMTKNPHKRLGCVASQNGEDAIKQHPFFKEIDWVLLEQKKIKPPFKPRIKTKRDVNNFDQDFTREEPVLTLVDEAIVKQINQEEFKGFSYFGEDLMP
Procedure: (§1) The analysis was performed by ProQinase (Freiburg, Germany).

TTBK2 = target: T2, TTBK2 (Homo sapiens, UniProt Q6IQ55)
T2 construct: purchased ProQinase (Freiburg, Germany)
Procedure: as §1

RIPK2 = target: T3, RIPK2 (Homo sapiens, UniProt O43353)
T3 construct: purchased ProQinase (Freiburg, Germany)
Procedure: as §1

LTK = target: T4, LTK (Homo sapiens, UniProt P29376)
T4 construct: purchased ProQinase (Freiburg, Germany)
Procedure: as §1

FLT3 = target: T5, FLT3 (Homo sapiens, UniProt P36888)
T5 construct: purchased ProQinase (Freiburg, Germany)
T5 sequence (P36888 27-993): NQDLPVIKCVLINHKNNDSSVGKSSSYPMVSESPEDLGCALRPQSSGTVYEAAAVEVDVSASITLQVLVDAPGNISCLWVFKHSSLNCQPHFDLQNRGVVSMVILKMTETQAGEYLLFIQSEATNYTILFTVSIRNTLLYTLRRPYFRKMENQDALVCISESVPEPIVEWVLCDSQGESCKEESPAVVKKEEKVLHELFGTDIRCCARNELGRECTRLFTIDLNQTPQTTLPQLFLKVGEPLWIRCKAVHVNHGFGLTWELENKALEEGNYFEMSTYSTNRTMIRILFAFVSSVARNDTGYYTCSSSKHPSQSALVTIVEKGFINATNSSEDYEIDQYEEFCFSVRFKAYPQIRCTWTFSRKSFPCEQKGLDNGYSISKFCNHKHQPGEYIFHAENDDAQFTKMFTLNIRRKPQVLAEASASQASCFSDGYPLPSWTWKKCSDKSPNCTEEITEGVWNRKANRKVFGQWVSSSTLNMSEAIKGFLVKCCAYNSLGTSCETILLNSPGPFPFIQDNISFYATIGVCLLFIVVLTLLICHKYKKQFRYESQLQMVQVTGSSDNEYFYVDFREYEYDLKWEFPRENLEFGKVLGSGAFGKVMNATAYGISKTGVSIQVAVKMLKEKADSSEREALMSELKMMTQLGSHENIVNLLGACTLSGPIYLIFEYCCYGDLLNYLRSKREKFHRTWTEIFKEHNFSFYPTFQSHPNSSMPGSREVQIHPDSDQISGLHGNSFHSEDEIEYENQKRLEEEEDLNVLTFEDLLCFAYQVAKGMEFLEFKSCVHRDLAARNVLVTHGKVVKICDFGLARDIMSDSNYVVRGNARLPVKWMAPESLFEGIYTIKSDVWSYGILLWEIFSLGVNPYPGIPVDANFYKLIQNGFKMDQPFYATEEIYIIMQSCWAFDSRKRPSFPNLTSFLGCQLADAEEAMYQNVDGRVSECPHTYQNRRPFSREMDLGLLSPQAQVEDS
Procedure: as §1

AKT2 = target: T6, AKT2 (Homo sapiens, UniProt P31751)
T6 construct: purchased ProQinase (Freiburg, Germany)
Procedure: as §1

TTK = target: T7, TTK (Homo sapiens, UniProt P33981)
T7 construct: purchased ProQinase (Freiburg, Germany)
T7 sequence (P33981 1-857): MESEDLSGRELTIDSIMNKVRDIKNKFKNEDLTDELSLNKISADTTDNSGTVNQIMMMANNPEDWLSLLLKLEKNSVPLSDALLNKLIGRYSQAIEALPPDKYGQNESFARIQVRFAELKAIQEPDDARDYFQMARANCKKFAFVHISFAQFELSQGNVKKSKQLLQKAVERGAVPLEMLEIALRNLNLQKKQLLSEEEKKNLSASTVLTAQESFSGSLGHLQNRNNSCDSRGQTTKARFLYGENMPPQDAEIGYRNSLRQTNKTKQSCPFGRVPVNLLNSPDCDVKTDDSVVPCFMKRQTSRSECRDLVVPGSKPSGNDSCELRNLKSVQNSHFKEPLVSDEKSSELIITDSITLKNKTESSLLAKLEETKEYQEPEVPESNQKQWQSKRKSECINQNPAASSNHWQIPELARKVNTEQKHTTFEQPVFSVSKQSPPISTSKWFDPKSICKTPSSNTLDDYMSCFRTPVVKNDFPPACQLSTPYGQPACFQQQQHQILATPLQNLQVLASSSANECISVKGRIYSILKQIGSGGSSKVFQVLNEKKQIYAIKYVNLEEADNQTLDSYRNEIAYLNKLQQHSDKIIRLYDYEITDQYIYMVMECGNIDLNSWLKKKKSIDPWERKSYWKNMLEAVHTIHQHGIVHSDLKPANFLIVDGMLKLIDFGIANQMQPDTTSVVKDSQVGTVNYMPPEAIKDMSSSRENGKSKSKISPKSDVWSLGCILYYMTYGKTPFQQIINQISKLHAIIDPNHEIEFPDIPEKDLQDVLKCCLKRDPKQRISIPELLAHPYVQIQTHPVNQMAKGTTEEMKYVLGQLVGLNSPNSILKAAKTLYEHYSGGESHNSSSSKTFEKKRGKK
Procedure: as §1

PAK4 = target: T8, PAK4 (Homo sapiens, UniProt O96013)
T8 construct: purchased ProQinase (Freiburg, Germany)
Procedure: as §1

T3 sequence (O43353 whole entry): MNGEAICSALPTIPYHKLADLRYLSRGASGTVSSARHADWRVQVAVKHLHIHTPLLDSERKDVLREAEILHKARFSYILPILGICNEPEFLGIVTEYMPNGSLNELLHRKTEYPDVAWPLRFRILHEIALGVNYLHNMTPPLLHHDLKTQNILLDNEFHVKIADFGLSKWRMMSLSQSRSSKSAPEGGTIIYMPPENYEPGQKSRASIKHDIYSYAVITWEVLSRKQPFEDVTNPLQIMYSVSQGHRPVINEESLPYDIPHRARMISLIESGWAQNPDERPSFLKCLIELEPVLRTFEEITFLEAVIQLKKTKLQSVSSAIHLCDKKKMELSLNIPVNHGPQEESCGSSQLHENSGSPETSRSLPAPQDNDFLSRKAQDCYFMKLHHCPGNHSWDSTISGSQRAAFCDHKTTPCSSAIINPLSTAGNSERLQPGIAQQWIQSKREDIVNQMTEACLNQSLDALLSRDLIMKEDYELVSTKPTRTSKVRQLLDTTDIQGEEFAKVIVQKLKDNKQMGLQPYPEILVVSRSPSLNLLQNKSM
T8 sequence (O96013 whole entry): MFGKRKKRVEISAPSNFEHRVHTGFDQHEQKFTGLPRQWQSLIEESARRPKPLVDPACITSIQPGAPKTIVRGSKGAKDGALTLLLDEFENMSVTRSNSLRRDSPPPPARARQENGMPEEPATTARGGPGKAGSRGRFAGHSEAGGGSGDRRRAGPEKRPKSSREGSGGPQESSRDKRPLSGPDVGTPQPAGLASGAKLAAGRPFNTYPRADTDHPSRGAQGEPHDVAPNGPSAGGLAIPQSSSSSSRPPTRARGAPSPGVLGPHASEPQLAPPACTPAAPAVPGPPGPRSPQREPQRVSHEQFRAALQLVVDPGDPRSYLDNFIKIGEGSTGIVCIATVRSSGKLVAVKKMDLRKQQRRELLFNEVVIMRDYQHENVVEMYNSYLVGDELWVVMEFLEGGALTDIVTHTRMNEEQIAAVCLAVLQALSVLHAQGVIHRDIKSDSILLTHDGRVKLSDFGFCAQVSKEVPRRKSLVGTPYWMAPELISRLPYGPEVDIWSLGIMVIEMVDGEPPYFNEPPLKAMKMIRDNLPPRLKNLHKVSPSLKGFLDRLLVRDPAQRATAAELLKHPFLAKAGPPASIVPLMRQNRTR
T2 sequence (Q6IQ55 whole entry): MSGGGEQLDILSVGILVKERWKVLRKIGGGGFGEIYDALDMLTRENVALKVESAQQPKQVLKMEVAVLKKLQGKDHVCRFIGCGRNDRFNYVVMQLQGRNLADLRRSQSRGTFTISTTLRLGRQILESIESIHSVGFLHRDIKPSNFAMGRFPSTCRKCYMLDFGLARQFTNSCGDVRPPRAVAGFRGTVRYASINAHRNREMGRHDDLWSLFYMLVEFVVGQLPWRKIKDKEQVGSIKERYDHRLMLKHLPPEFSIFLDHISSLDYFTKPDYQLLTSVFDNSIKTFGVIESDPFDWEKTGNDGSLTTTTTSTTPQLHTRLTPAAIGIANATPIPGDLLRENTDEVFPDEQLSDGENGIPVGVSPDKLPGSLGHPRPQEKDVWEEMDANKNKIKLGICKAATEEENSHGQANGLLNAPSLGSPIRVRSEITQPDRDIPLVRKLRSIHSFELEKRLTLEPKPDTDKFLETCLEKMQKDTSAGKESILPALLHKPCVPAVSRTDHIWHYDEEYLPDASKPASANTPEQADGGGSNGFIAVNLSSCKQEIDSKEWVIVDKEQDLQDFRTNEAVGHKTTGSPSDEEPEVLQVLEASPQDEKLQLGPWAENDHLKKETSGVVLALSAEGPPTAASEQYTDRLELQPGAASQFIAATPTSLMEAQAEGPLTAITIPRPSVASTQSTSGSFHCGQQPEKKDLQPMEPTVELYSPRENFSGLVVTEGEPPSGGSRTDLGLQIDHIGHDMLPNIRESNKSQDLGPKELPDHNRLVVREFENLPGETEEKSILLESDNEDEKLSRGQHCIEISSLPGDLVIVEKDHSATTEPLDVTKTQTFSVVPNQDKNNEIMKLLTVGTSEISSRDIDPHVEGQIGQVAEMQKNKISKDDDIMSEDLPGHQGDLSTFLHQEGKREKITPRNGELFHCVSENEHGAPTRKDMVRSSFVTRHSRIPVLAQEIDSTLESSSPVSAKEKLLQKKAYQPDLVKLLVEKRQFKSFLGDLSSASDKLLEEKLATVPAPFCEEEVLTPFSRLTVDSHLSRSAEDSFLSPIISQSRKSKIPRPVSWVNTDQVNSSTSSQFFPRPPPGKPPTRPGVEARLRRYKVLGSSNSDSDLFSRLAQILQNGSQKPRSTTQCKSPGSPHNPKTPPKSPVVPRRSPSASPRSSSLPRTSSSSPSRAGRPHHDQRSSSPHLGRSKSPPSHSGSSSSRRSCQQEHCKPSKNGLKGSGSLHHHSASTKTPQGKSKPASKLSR
T6 sequence (P31751 whole entry): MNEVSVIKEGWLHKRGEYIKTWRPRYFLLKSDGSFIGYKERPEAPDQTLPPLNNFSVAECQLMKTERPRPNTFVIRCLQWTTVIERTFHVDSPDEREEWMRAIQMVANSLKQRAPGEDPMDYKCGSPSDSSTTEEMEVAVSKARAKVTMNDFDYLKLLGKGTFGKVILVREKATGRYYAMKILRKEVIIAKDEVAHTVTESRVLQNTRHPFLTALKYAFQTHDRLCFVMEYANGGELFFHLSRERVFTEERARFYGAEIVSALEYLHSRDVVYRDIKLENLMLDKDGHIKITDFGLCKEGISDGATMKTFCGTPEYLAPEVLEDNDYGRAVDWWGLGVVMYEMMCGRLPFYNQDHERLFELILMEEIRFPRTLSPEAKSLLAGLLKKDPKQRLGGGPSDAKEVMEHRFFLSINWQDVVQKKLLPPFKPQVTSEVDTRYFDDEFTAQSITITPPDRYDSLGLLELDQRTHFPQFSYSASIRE
T4 sequence (P29376 17-864): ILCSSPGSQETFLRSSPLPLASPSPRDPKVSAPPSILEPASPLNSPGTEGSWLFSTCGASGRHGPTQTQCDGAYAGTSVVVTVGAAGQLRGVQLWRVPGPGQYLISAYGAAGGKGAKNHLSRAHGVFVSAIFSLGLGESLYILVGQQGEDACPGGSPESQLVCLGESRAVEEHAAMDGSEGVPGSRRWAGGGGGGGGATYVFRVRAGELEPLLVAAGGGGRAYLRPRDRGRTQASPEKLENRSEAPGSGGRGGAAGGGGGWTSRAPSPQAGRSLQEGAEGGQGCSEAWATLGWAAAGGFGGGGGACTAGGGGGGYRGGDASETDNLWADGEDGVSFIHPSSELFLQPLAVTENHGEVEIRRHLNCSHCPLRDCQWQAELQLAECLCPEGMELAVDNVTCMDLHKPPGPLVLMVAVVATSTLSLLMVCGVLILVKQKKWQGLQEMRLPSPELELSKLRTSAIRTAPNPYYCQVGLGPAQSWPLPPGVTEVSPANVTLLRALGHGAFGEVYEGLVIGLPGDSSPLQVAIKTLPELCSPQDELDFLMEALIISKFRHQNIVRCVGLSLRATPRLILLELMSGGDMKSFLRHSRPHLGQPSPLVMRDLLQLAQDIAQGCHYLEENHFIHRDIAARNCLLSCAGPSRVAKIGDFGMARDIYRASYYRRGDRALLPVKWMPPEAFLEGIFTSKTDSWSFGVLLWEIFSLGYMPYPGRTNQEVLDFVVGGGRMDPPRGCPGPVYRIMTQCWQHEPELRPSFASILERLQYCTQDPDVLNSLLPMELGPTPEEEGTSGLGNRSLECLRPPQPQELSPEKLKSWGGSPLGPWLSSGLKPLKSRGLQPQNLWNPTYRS

Structure (SMILES)	Residual activity (PKCepsilon; 1.0E-05 M)	Residual activity (PKCepsilon; 1.0E-06 M)	Residual activity (TTBK2; 1.0E-05 M)	Residual activity (TTBK2; 1.0E-06 M)	Residual activity (RIPK2; 1.0E-05 M)	Residual activity (RIPK2; 1.0E-06 M)	Residual activity (LTK; 1.0E-05 M)	Residual activity (LTK; 1.0E-06 M)	Residual activity (FLT3; 1.0E-05 M)	Residual activity (FLT3; 1.0E-06 M)	Residual activity (AKT2; 1.0E-05 M)	Residual activity (AKT2; 1.0E-06 M)	Residual activity (TTK; 1.0E-05 M)	Residual activity (TTK; 1.0E-06 M)	Residual activity (PAK4; 1.0E-05 M)	Residual activity (PAK4; 1.0E-06 M)
O=C(Cc1ccccc1)Nc1ccc(F)c(Nc2ccc3c(c2)CCCCC3=O)c1 [Compound 100]	107 % of control	107 % of control	126 % of control	109 % of control	89 % of control	104 % of control	50 % of control	115 % of control	94 % of control	101 % of control	82 % of control	92 % of control	95 % of control	99 % of control	92 % of control	97 % of control
O=C(Nc1ccc(F)c(Nc2ccc3c(c2)CCCCC3=O)c1)c1cccc(F)c1 [Compound 109]	103 % of control	104 % of control	113 % of control	105 % of control	84 % of control	99 % of control	77 % of control	95 % of control	91 % of control	98 % of control	92 % of control	92 % of control	89 % of control	91 % of control	82 % of control	98 % of control
